Measured values from patent US20050261283A1, “Methods and compositions for the treatment of graft failure” (priority 2002, published 2005).
Values after ≈ are worked out from the molar mass of the structure shown. Structures can show the parent of a compound that is named as a salt.

How the values were obtained:
[1] = tested on: cells of porcine origin from a primary explant of porcine carotid artery; experiment: PDGF induced migration of cells of porcine origin (carotid artery explant), Boyden chamber; type: cell-based; conditions: hPDGF-BB 20 ng/ml; second passage cells; FIG. 13
[2] = tested on: human aortic vascular smooth muscle cell (HASOM cells); experiment: PDGF-BB induced migration of human aortic vascular smooth muscle cells, Boyden chamber; type: cell-based
Description: The cells were then cultured in the presence of these agents for forty-eight hours prior to the migration assay. […] Each well contained an insert with a polycarbonate filter having 8 μm pores. In preparation for the migration assays, the membranes were coated with 0.1% gelatin for 8 hours, aspirated, and allowed to dry for 2 hours.
The M-199 media containing 0.5% BSA and 20 ng/ml human PDGF-B (hPDGF-BB) was placed in the bottom Boyden chamber. Cells were incubated at 5% CO2 at 37° C. for twelve hours and the cells lying on the upper surface of the membrane were scraped off. The insert membranes were removed and the cells on the lower surface of each membrane were stained with hematoxylin. Cell migration was then quantified by counting the cells in five random high-power fields on the lower surface of the membrane. All assays were run in triplicate.

| IC50 ([2]; Homo sapiens, in vitro VSMC migration, read-out: IC50 for blocking VSMC migration) | SMILES | inhibition of PDGF-B induced migration of porcine cells [1] | inhibition of PDGF induced migration of HASOM cells ([2]; hPDGF-BB 20 ng/ml, 48 h pre-treatment, 12 h migration, FIG. 12) |
| --- | --- | --- | --- |
| – | Cc1ccc(NC(=O)c2ccc(CN3CCN(C)CC3)cc2)cc1Nc1nccc(-c2cccnc2)n1 [Gleevec, imatinib mesylate] | inhibited PDGF-B induced migration of theses porcine cells a dose dependent manner | potently inhibited PDGF induced migration of HASOM cells in a dose dependent manner |
| 1 to 5 ng/mL (≈ 1.09 to 5.47 nM) | CO[C@H]1C[C@@H]2CC[C@@H](C)[C@@](O)(O2)C(=O)C(=O)N2CCCC[C@H]2C(=O)O[C@H]([C@H](C)C[C@@H]2CC[C@@H](O)[C@H](OC)C2)CC(=O)[C@H](C)/C=C(\C)[C@@H](O)[C@@H](OC)C(=O)[C@H](C)C[C@H](C)/C=C/C=C/C=C/1C [rapamycin] | – | – |
